Results reported in PubChem BioAssay AID248 (DTP/NCI, 2004).
Several values for one entry are separate records, joined by “and”; a condition that tells them apart may be missing. Identical values can stand only once. Inconclusive results and toxic doses are left out. Rule as the data show it: active = T/C of 150% or more; inactive = T/C below 125%.

Tested on: L1210 leukemia ip in BDF1 mice, survival T/C
Test: NCI In Vivo Anticancer Drug Screen. Data for tumor model L1210 Leukemia (intraperitoneal) in B6D2F1 (BDF1) mice
Settings: higher = longer survival
In short: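 Tumor cells were implanted, animals were treated, and survival was followed. The result divides the treated measurement by the vehicle-control measurement.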

Measured: T/C

O=c1[nH]c(=O)n(C2CC(O)C(CO)O2)cc1F (configuration not stated)
inactive: endpoint: mean survival time, dose: 2.3 mg/kg/injection, schedule: Q01DX009 (ip), vehicle: saline 95 % of control and 100 % of control | endpoint: mean survival time, dose: 2.5 mg/kg/injection, schedule: Q01DX009 (ip), vehicle: saline 105 % of control | endpoint: mean survival time, dose: 3.12 mg/kg/injection, schedule: Q#A X Z (ip), vehicle: saline 109 % of control | endpoint: mean survival time, dose: 4.5 mg/kg/injection, schedule: Q01DX009 (ip), vehicle: saline 106 % of control | endpoint: mean survival time, dose: 5.0 mg/kg/injection, schedule: Q01DX009 (ip), vehicle: saline 103 % of control | endpoint: mean survival time, dose: 5.0 mg/kg/injection, schedule: Q01DX009 (oral), vehicle: saline 105 % of control | endpoint: mean survival time, dose: 6.25 mg/kg/injection, schedule: Q01DX Z (ip), vehicle: saline 105 % of control | endpoint: mean survival time, dose: 6.25 mg/kg/injection, schedule: Q#A X Z (ip), vehicle: saline 114 % of control | endpoint: mean survival time, dose: 9.0 mg/kg/injection, schedule: Q01DX009 (ip), vehicle: saline 103 % of control and 110 % of control | endpoint: mean survival time, dose: 10.0 mg/kg/injection, schedule: Q01DX005 (ip), vehicle: water 99 % of control and 102 % of control | endpoint: mean survival time, dose: 10.0 mg/kg/injection, schedule: Q01DX009 (ip), vehicle: saline 112 % of control | endpoint: mean survival time, dose: 10.0 mg/kg/injection, schedule: Q01DX009 (oral), vehicle: saline 98 % of control | endpoint: mean survival time, dose: 11.0 mg/kg/injection, schedule: Q07DX Z (ip), vehicle: saline 106 % of control | endpoint: mean survival time, dose: 12.5 mg/kg/injection, schedule: Q01DX Z (ip), vehicle: saline 111 % of control | endpoint: mean survival time, dose: 18.0 mg/kg/injection, schedule: Q04DX002 (ip), vehicle: saline 106 % of control and 115 % of control | endpoint: mean survival time, dose: 20.0 mg/kg/injection, schedule: Q01DX009 (oral), vehicle: saline 105 % of control | endpoint: mean survival time, dose: 20.0 mg/kg/injection, schedule: Q01DX015 (ip), vehicle: water 111 % of control | endpoint: mean survival time, dose: 20.0 mg/kg/injection, schedule: Q01DX Z (ip), vehicle: saline 105 % of control | endpoint: mean survival time, dose: 22.0 mg/kg/injection, schedule: Q07DX Z (ip), vehicle: saline 102 % of control | endpoint: mean survival time, dose: 25.0 mg/kg/injection, schedule: Q01DX006 (iv), vehicle: saline 110 % of control | endpoint: mean survival time, dose: 25.0 mg/kg/injection, schedule: Q01DX Z (ip), vehicle: saline 111 % of control | endpoint: mean survival time, dose: 25.0 mg/kg/injection, schedule: Q01DX Z (sc), vehicle: saline 111 % of control | endpoint: mean survival time, dose: 25.9 mg/kg/injection, schedule: Q01DX009 (ip), vehicle: saline 115 % of control | endpoint: mean survival time, dose: 29.0 mg/kg/injection, schedule: Q02DX008 (ip), vehicle: water 98 % of control | endpoint: mean survival time, dose: 30.0 mg/kg/injection, schedule: Q01DX015 (ip), vehicle: water 108 % of control | endpoint: mean survival time, dose: 30.0 mg/kg/injection, schedule: Q01DX Z (ip), vehicle: saline 106 % of control | endpoint: mean survival time, dose: 36.0 mg/kg/injection, schedule: Q04DX002 (ip), vehicle: saline 100 % of control and 110 % of control | endpoint: mean survival time, dose: 40.0 mg/kg/injection, schedule: Q01DX Z (ip), vehicle: saline 112 % of control | endpoint: mean survival time, dose: 42.0 mg/kg/injection, schedule: Q02DX008 (ip), vehicle: water 101 % of control | endpoint: mean survival time, dose: 44.0 mg/kg/injection, schedule: Q07DX Z (ip), vehicle: saline 106 % of control | endpoint: mean survival time, dose: 50.0 mg/kg/injection, schedule: Q01DX001 (ip), vehicle: saline 107 % of control | endpoint: mean survival time, dose: 50.0 mg/kg/injection, schedule: Q01DX Z (oral), vehicle: saline 107 % of control | endpoint: mean survival time, dose: 50.0 mg/kg/injection, schedule: Q02DX009 (ip), vehicle: saline 110 % of control | endpoint: mean survival time, dose: 50.0 mg/kg/injection, schedule: Q04DX003 (ip), vehicle: saline 105 % of control | endpoint: mean survival time, dose: 60.0 mg/kg/injection, schedule: Q## X004 (ip), vehicle: water 108 % of control | endpoint: mean survival time, dose: 63.0 mg/kg/injection, schedule: Q02DX008 (ip), vehicle: water 111 % of control | endpoint: mean survival time, dose: 75.0 mg/kg/injection, schedule: Q03DX006 (ip), vehicle: saline 111 % of control | endpoint: mean survival time, dose: 80.0 mg/kg/injection, schedule: Q01DX Z (ip), vehicle: saline 102 % of control | endpoint: mean survival time, dose: 80.0 mg/kg/injection, schedule: Q## X032 (ip), vehicle: water 108 % of control | endpoint: mean survival time, dose: 88.0 mg/kg/injection, schedule: Q07DX Z (ip), vehicle: saline 113 % of control | endpoint: mean survival time, dose: 90.0 mg/kg/injection, schedule: Q## X004 (ip), vehicle: water 98 % of control | endpoint: mean survival time, dose: 100.0 mg/kg/injection, schedule: Q01DX001 (ip), vehicle: saline 104 % of control and 110 % of control | endpoint: mean survival time, dose: 100.0 mg/kg/injection, schedule: Q01DX001 (ip), vehicle: water 100 % of control | endpoint: mean survival time, dose: 100.0 mg/kg/injection, schedule: Q01DX005 (ip), vehicle: saline 116 % of control | endpoint: mean survival time, dose: 100.0 mg/kg/injection, schedule: Q01DX Z (sc), vehicle: saline 111 % of control | endpoint: mean survival time, dose: 100.0 mg/kg/injection, schedule: Q04DX003 (ip), vehicle: saline 111 % of control | endpoint: mean survival time, dose: 100.0 mg/kg/injection, schedule: Q04DX005 (ip), vehicle: saline 115 % of control | endpoint: mean survival time, dose: 100.0 mg/kg/injection, schedule: Q#A X Z (ip), vehicle: saline 105 % of control | endpoint: mean survival time, dose: 125.0 mg/kg/injection, schedule: Q01DX001 (ip), vehicle: saline 112 % of control | endpoint: mean survival time, dose: 150.0 mg/kg/injection, schedule: Q01DX001 (ip), vehicle: water 102 % of control | endpoint: mean survival time, dose: 160.0 mg/kg/injection, schedule: Q01DX009 (ip), vehicle: saline 100 % of control | endpoint: mean survival time, dose: 160.0 mg/kg/injection, schedule: Q01DX009 (oral), vehicle: saline 101 % of control | endpoint: mean survival time, dose: 160.0 mg/kg/injection, schedule: Q01DX Z (ip), vehicle: saline 110 % of control | endpoint: mean survival time, dose: 175.0 mg/kg/injection, schedule: Q07DX003 (ip), vehicle: saline 114 % of control | endpoint: mean survival time, dose: 200.0 mg/kg/injection, schedule: Q01DX001 (ip), vehicle: saline 106 % of control and 107 % of control | endpoint: mean survival time, dose: 200.0 mg/kg/injection, schedule: Q01DX017 (ip), vehicle: saline 100 % of control | endpoint: mean survival time, dose: 200.0 mg/kg/injection, schedule: Q01DX Z (im), vehicle: saline 107 % of control | endpoint: mean survival time, dose: 200.0 mg/kg/injection, schedule: Q01DX Z (ip), vehicle: carboxymethylcellulose (CMC) 94 % of control | endpoint: mean survival time, dose: 200.0 mg/kg/injection, schedule: Q01DX Z (ip), vehicle: saline 102 % of control | endpoint: mean survival time, dose: 200.0 mg/kg/injection, schedule: Q01DX Z (sc), vehicle: saline 96 % of control | endpoint: mean survival time, dose: 200.0 mg/kg/injection, schedule: Q04DX002 (ip), vehicle: water 112 % of control | endpoint: mean survival time, dose: 225.0 mg/kg/injection, schedule: Q01DX001 (ip), vehicle: water 110 % of control | endpoint: mean survival time, dose: 250.0 mg/kg/injection, schedule: Q01DX001 (ip), vehicle: saline 109 % of control | endpoint: mean survival time, dose: 250.0 mg/kg/injection, schedule: Q01DX Z (ip), vehicle: saline 95 % of control | endpoint: mean survival time, dose: 270.0 mg/kg/injection, schedule: Q01DX009 (ip), vehicle: saline 115 % of control | endpoint: mean survival time, dose: 270.0 mg/kg/injection, schedule: Q## X009 (ip), vehicle: saline 115 % of control | endpoint: mean survival time, dose: 300.0 mg/kg/injection, schedule: Q02DX010 (ip), vehicle: other 108 % of control | endpoint: mean survival time, dose: 320.0 mg/kg/injection, schedule: Q01DX009 (ip), vehicle: saline 101 % of control and 108 % of control | endpoint: mean survival time, dose: 320.0 mg/kg/injection, schedule: Q01DX009 (oral), vehicle: saline 93 % of control | endpoint: mean survival time, dose: 335.0 mg/kg/injection, schedule: Q01DX001 (ip), vehicle: saline 115 % of control | endpoint: mean survival time, dose: 350.0 mg/kg/injection, schedule: Q01DX Z (ip), vehicle: saline 104 % of control | endpoint: mean survival time, dose: 375.0 mg/kg/injection, schedule: Q04DX003 (ip), vehicle: saline 112 % of control | endpoint: mean survival time, dose: 400.0 mg/kg/injection, schedule: Q01DX001 (ip), vehicle: saline 116 % of control | endpoint: mean survival time, dose: 400.0 mg/kg/injection, schedule: Q01DX009 (ip), vehicle: saline 102 % of control | endpoint: mean survival time, dose: 400.0 mg/kg/injection, schedule: Q01DX Z (oral), vehicle: saline 105 % of control | endpoint: mean survival time, dose: 400.0 mg/kg/injection, schedule: Q02DX009 (ip), vehicle: saline 100 % of control | endpoint: mean survival time, dose: 450.0 mg/kg/injection, schedule: Q02DX010 (ip), vehicle: carboxymethylcellulose (CMC) 113 % of control | endpoint: mean survival time, dose: 450.0 mg/kg/injection, schedule: Q02DX010 (ip), vehicle: other 92 % of control | endpoint: mean survival time, dose: 500.0 mg/kg/injection, schedule: Q04DX003 (ip), vehicle: saline 105 % of control | endpoint: mean survival time, dose: 640.0 mg/kg/injection, schedule: Q01DX009 (ip), vehicle: saline 95 % of control | endpoint: mean survival time, dose: 640.0 mg/kg/injection, schedule: Q01DX009 (oral), vehicle: saline 96 % of control | endpoint: mean survival time, dose: 700.0 mg/kg/injection, schedule: Q07DX003 (ip), vehicle: saline 111 % of control | endpoint: mean survival time, dose: 714.0 mg/kg/injection, schedule: Q02DX008 (ip), vehicle: saline 113 % of control | endpoint: mean survival time, dose: 750.0 mg/kg/injection, schedule: Q01DX001 (ip), vehicle: saline 112 % of control | endpoint: mean survival time, dose: 800.0 mg/kg/injection, schedule: Q01DX001 (ip), vehicle: water 108 % of control | endpoint: mean survival time, dose: 800.0 mg/kg/injection, schedule: Q01DX Z (oral), vehicle: saline 108 % of control | endpoint: mean survival time, dose: 800.0 mg/kg/injection, schedule: Q04DX003 (ip), vehicle: saline 113 % of control | endpoint: mean survival time, dose: 800.0 mg/kg/injection, schedule: Q04DX005 (ip), vehicle: saline 114 % of control | endpoint: mean survival time, dose: 1071.0 mg/kg/injection, schedule: Q02DX008 (ip), vehicle: saline 104 % of control | endpoint: mean survival time, dose: 1344.0 mg/kg/injection, schedule: Q## X032 (ip), vehicle: water 107 % of control | endpoint: median survival time, dose: 160.0 mg/kg/injection, schedule: Q01DX009 (ip), vehicle: saline 100 % of control | endpoint: median survival time, dose: 320.0 mg/kg/injection, schedule: Q01DX009 (ip), vehicle: saline 106 % of control
